Reference: article PMC7224190, “Pharmacological inhibition of PRMT7 links arginine monomethylation to the cellular stress response” (Nature Communications, 2020)

Experiments:
PRMT7 [1] = target: T1, PRMT7 (Homo sapiens, UniProt Q9NVM4); experiment: radiometric SPA methyltransferase assay, 3H-SAM and H2B ([…]); type: biochemical
T1 sequence (Q9NVM4 1-692): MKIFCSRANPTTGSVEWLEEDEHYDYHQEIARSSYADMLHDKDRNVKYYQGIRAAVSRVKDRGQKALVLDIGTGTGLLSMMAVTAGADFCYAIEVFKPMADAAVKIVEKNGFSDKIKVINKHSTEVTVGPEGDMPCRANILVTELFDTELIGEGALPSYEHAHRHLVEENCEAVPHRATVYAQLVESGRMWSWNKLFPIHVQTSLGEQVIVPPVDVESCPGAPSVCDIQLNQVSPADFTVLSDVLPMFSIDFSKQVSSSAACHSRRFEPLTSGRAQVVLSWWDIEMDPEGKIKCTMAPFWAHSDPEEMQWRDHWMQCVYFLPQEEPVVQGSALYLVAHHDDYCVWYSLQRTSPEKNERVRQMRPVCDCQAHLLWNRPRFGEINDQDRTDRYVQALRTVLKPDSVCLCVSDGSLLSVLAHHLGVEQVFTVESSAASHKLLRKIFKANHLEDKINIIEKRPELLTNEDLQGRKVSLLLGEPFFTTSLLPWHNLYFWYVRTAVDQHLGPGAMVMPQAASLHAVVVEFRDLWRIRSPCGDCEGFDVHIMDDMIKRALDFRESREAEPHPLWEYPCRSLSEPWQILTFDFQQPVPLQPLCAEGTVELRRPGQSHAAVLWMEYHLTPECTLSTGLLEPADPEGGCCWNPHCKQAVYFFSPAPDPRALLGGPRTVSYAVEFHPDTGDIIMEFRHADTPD

PRMT7 [2] = target: T1, PRMT7; experiment: radiometric enzyme kinetics (Km of the methyl donor) with HSPA8 as substrate in presence of ATP; type: biochemical

Row | Km (PRMT7 [2]) [µM] | Compound | IC50 (PRMT7 [1]) [nM]
1 | – | NCCCSC[C@H]1O[C@@H](n2cnc3c(N)ncnc32)[C@H](O)[C@@H]1O [SGC0911] | 1000
2 | 1.6 ± 0.1 | C[S@@+](CC[C@H](N)C(=O)O)C[C@H]1O[C@@H](n2cnc3c(N)ncnc32)[C@H](O)[C@@H]1O [SAM] | –
